30 molecules from US20250346597A1, “CONDENSED HETEROCYCLIC COMPOUNDS AS INHIBITOR OF DIACYLGLYCEROL KINASES” (BEONE MEDICINES I GMBH, priority 2023, published 2025) can be followed below.

pIC50: −log10 of the molar value. Where only a bound is given, the exact number is not on record here.

One assay addresses DGKζ (Homo sapiens (Human), UniProt Q13574). Nature of the assay: Biochemical DGK IC50 assay (ADP-Glo, lipid micelle substrate), DGKζ. Particulars: full length DGKζ 0.5 nM, ATP 140 μM, DAG 80 μM. The method, then: (§1) Enzymatic reactions of DGKζ, DGKα and DGKδ were performed using ADP-Glo assay with lipid micelle substrate. […] Full length DGKα (D21-10BG, SignalChem) and full length DGKδ (D23-10G, SignalChem) were purchased. Lipid micelle was prepared by dissolving DAG (Sigma, 317505-10MG) and PS (Sigma, P7769-100MG) with chloroform which was furtherly removed by rotary evaporation. The resulted product was resuspended in buffer containing 25 mM HEPES pH 7.0, 0.5 mM EDTA and 160 mM Octyl P-D glucopyranoside by vigorous mixing and ultrasonic (IID, Scientz).
(§2) The inhibition activities testing for the compound disclosed herein were carried out at room temperature in assay buffer containing 50 mM HEPES, 10 mM MgCl2, 0.01% BSA, 0.1 mM Na3VO4, 0.005% Tween-20 and 0.01 mM CaCl2. Compounds in DMSO were dispensed into wells of a black 384 well plate (Corning 4514) using D300e digital dispenser (Tecan). […] 3 μL 2× enzyme solution was added to wells. […] After 1 hour reaction, 5 μL ADP-Glo reagent (Promga V9101) was added and incubated for 40 minutes. 10 μL Kinase Detection reagent was added and incubated for 30 minutes. Luminescence was measured on a microplate reader (PHERAstar FSX, BMG labtech). The IC50s are calculated based on inhibition of enzyme activity in the presence of increasing concentrations of compounds.
Human His-TEV-DGK-zeta-pFastBac1 and human baculovirus samples was generated using the Bac-to-Bac baculovirus expression system (Invitrogen) according to the manufacturer's protocol. The DNA used for expression of DGK-zeta, have SEQ ID Nos: 1. Baculovirus amplification was achieved using infected SF9 cells at 1:2000 virus/cells ratios, and grown for 96 hours at 27° C. post-transfected.
The expression scaled up for each protein was carried out in the […] from CORNING. 4 L of 3×10^6 cells/mL Sf9 cells (Expression System, Invitrogen) grown in SF900™ II SFM insect medium (Expression System) was infected with virus stock at 1:200 virus/cells ratio, and grown for 48 hours at 27° C. post-transfection. The infected cell culture was harvested by centrifugation at 6000 rpm for 15 min 4° C. in a SORVALL LYNX6000 centrifuge. The cell pellets were stored at −80° C.
Full length human DGKζ produced as described above, was purified from Sf9 baculovirus-infected insect cell paste. The cells were lysed using sonication method, and the lysates were clarified by centrifugation.
For orientation: ADP-Glo turns the ADP formed in a reaction into a luminescent signal.

The next assay addresses DGKα (Homo sapiens (Human), UniProt P23743). The assay can be described thus: Biochemical DGK IC50 assay (ADP-Glo, lipid micelle substrate), DGKα. Also: full length DGKα 7.5 nM. Particulars: full length DGKα […], ATP 140 μM, DAG 80 μM. The method, then: as §1, §2

Sequence of DGKζ (Q13574 other isoform, or with tags, fused parts or gaps): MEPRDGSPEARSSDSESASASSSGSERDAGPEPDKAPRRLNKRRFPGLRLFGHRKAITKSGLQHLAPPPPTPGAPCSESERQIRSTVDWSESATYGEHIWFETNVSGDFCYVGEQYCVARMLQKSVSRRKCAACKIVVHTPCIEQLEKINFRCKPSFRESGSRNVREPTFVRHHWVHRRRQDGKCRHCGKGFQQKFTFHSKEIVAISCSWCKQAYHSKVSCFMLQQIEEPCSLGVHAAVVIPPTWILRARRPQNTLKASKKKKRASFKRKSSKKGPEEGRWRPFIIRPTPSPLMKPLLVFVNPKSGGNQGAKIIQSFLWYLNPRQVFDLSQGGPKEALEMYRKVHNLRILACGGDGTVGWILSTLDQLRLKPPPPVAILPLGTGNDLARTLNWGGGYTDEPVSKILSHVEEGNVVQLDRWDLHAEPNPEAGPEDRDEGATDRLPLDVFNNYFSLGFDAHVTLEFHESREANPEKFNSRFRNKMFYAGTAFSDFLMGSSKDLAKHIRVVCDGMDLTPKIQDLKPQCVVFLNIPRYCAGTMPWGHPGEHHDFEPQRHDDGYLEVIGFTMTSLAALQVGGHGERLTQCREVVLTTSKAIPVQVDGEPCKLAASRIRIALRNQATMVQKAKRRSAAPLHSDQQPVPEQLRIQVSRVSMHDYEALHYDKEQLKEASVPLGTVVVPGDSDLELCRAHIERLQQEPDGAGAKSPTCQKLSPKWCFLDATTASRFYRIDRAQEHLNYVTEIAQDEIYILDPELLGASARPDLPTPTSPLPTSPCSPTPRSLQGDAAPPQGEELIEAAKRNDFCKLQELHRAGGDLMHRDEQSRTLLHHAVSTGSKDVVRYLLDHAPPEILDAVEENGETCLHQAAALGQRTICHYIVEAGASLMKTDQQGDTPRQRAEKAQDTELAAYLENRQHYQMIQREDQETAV
Sequence of DGKα (P23743 whole entry): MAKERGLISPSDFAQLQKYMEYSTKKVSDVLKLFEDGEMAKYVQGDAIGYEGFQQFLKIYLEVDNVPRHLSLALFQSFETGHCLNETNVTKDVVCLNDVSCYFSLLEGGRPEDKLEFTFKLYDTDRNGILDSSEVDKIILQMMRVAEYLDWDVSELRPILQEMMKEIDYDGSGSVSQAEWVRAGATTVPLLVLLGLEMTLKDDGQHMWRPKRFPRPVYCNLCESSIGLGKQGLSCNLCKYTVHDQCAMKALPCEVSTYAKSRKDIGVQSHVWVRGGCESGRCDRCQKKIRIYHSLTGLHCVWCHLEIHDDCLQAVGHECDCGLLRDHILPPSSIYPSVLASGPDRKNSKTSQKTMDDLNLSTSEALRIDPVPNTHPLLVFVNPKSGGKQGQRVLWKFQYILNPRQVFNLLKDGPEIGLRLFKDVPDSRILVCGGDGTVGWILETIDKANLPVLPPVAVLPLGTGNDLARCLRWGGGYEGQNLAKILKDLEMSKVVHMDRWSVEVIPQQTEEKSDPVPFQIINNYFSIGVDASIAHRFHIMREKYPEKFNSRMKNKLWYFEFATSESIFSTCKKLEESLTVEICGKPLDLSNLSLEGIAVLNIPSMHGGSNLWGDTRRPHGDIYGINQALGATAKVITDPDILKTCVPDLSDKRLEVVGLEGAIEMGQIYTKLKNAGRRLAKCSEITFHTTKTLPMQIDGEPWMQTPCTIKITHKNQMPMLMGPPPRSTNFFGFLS

The term pIC50 denotes the IC50 on a negative log10 scale, so that one unit is a factor of ten. A high value points to a small IC50. For the molecule `CC[C@@H]1CN(c2cc(=O)n(C)c3cn(CC#N)nc23)[C@@H](C)CN1C(C)c1ccc2ncsc2c1` (single isomer, unassigned) [Compound A92a], the pIC50 is 8.04 against DGKζ and 6.97 on DGKα.

With `CC[C@@H]1CN(c2cc(=O)n(C)c3cn(CC#N)nc23)[C@@H](C)CN1C(C)c1ccc2ncsc2c1` (single isomer, unassigned) [Compound A92b], the negative logarithm of the IC50 (pIC50) against DGKζ was 6.58; on DGKα, 5.99.

Regarding `CC[C@H]1CN(C(C)c2cnc3ncsc3c2)[C@H](CC)CN1c1cc(=O)n(C)c2cn(CC#N)nc12` (single isomer, unassigned) [Compound A98a], the values for the pIC50 on DGKζ and on DGKα were 6.97 and 5.26, respectively.

Regarding `CC[C@H]1CN(C(C)c2cnc3ncsc3c2)[C@H](CC)CN1c1cc(=O)n(C)c2cn(CC#N)nc12` (single isomer, unassigned) [Compound A98b], the pIC50 is 5.54 on DGKζ and 5.02 on DGKα.

As to `CC[C@H]1CN(C(C)c2ccc3ncsc3n2)[C@H](CC)CN1c1cc(=O)n(C)c2cn(CC#N)nc12` (single isomer, unassigned) [Compound A99a], the pIC50 is 5.45 against DGKζ and 5.76 on DGKα.

Consider `CC[C@H]1CN(C(C)c2ccc3ncsc3n2)[C@H](CC)CN1c1cc(=O)n(C)c2cn(CC#N)nc12` (single isomer, unassigned) [Compound A99b], for which the pIC50 against DGKζ is 8.07; against DGKα, 7.62.

`CC[C@@H]1CN(c2cc(=O)n(C)c3cn(CC#N)nc23)[C@@H](C)CN1C(C)c1ccc2ncsc2n1` (single isomer, unassigned) [Compound A100a]: the pIC50 at DGKζ was 7.34; against DGKα, 7.07.

With `CC[C@@H]1CN(c2cc(=O)n(C)c3cn(CC#N)nc23)[C@@H](C)CN1C(C)c1ccc2ncsc2n1` (single isomer, unassigned) [Compound A100b], the pIC50 against DGKζ is 5.58; against DGKα it was 5.54.

For `CC[C@H]1CN(C(C)c2cc(F)c3ncsc3c2)[C@H](CC)CN1c1cc(=O)n(C)c2cn(CC#N)nc12` (single isomer, unassigned) [Compound A101a], the values for the pIC50 at DGKζ and at DGKα were 7.72 and 5.58, respectively.

For `CC[C@H]1CN(C(C)c2cc(F)c3ncsc3c2)[C@H](CC)CN1c1cc(=O)n(C)c2cn(CC#N)nc12` (single isomer, unassigned) [Compound A101b], the pIC50 is 5.91 against DGKζ and 4.75 on DGKα.

In the case of `CC[C@H]1CN(C(C)c2cc3scnc3cc2F)[C@H](CC)CN1c1cc(=O)n(C)c2cn(CC#N)nc12` (single isomer, unassigned) [Compound A103a], the negative-log IC50 (pIC50) on DGKζ is 7.85; on DGKα, 7.04.

In the case of `CC[C@H]1CN(C(C)c2cc3scnc3cc2F)[C@H](CC)CN1c1cc(=O)n(C)c2cn(CC#N)nc12` (single isomer, unassigned) [Compound A103b], the pIC50 against DGKζ was 6.20; at DGKα, 5.87.

Turning to `CC[C@@H]1CN(c2cc(=O)n(C)c3cn(CC#N)nc23)[C@@H](C)CN1C(C)c1ccc2nc(C)sc2c1F` (single isomer, unassigned) [Compound A104a], the negative-log IC50 (pIC50) against DGKζ was 8.19; against DGKα, 5.50.

Regarding `CC[C@@H]1CN(c2cc(=O)n(C)c3cn(CC#N)nc23)[C@@H](C)CN1C(C)c1ccc2nc(C)sc2c1F` (single isomer, unassigned) [Compound A104b], the pIC50 was 6.66 against DGKζ and 4.74 against DGKα.

On to `CC[C@H]1CN(C(C)c2ccc3nsnc3c2)[C@H](CC)CN1c1cc(=O)n(C)c2cn(CC#N)nc12` (single isomer, unassigned) [Compound A106a], for which the pIC50 on DGKζ was 8.05; against DGKα, 7.19.

With `CC[C@H]1CN(C(C)c2ccc3nsnc3c2)[C@H](CC)CN1c1cc(=O)n(C)c2cn(CC#N)nc12` (single isomer, unassigned) [Compound A106b], the pIC50 against DGKζ was 6.22; against DGKα it was 6.03.

In the case of `CC[C@H]1CN(C(C)c2ccc3scnc3c2F)[C@H](CC)CN1c1cc(=O)n(C)c2cn(CC#N)nc12` (single isomer, unassigned) [Compound A110a], the results for the pIC50 on DGKζ and on DGKα were 7.51 and 6.33, respectively.

With `CC[C@H]1CN(C(C)c2ccc3scnc3c2F)[C@H](CC)CN1c1cc(=O)n(C)c2cn(CC#N)nc12` (single isomer, unassigned) [Compound A110b], the values for the pIC50 against DGKζ and against DGKα were 5.76 and 4.98, respectively.

On to `CC#CCn1cc2c(n1)c(N1C[C@@H](CC)N(C(C)c3nc4ccccc4nc3C)C[C@@H]1C)cc(=O)n2C` (single isomer, unassigned) [Compound A111a], for which the values for the pIC50 at DGKζ and at DGKα were less than 5.00 and 5.60, respectively.

As to `CC#CCn1cc2c(n1)c(N1C[C@@H](CC)N(C(C)c3nc4ccccc4nc3C)C[C@@H]1C)cc(=O)n2C` (single isomer, unassigned) [Compound A111b], the pIC50 is 7.26 at DGKζ and 5.90 on DGKα.

As to `CC#CCn1cc2c(n1)c(N1C[C@@H](CC)N(C(C)c3ccc4ncsc4c3)C[C@@H]1C)cc(=O)n2C` (single isomer, unassigned) [Compound A112a], the negative logarithm of the IC50 (pIC50) was 7.11 against DGKζ and 7.19 against DGKα.

As for `CC#CCn1cc2c(n1)c(N1C[C@@H](CC)N(C(C)c3ccc4ncsc4c3)C[C@@H]1C)cc(=O)n2C` (single isomer, unassigned) [Compound A112b], the pIC50 was less than 5.00 on DGKζ and 6.30 against DGKα.

Take `CC#CCn1cc2c(n1)c(N1C[C@@H](CC)N(C(C)c3ccc4nc(C)sc4c3)C[C@@H]1CC)cc(=O)n2C` (single isomer, unassigned) [Compound A114a]: the pIC50 against DGKζ is 7.08; against DGKα, 7.49.

Consider `CC#CCn1cc2c(n1)c(N1C[C@@H](CC)N(C(C)c3ccc4nc(C)sc4c3)C[C@@H]1CC)cc(=O)n2C` (single isomer, unassigned) [Compound A114b], for which the pIC50 against DGKζ is 5.49; at DGKα, 6.41.

As to `CC#CCn1cc2c(n1)c(N1C[C@@H](CC)N(C(C)c3ccc4nc(C)sc4c3)C[C@@H]1C)cc(=O)n2C` (single isomer, unassigned) [Compound A115a], the results for the pIC50 against DGKζ and against DGKα were 6.37 and 6.57, respectively.

On to `CC#CCn1cc2c(n1)c(N1C[C@@H](CC)N(C(C)c3ccc4nc(C)sc4c3)C[C@@H]1C)cc(=O)n2C` (single isomer, unassigned) [Compound A115b], for which the pIC50 against DGKζ is 5.19; against DGKα, 5.90.

Turning to `CC#CCn1cc2c(n1)c(N1C[C@@H](CC)N(C(C)c3ccc4nc(C)sc4c3F)C[C@@H]1C)cc(=O)n2C` (single isomer, unassigned) [Compound A116a], the pIC50 was 6.74 against DGKζ and 5.63 against DGKα.

On to `CC#CCn1cc2c(n1)c(N1C[C@@H](CC)N(C(C)c3ccc4nc(C)sc4c3F)C[C@@H]1C)cc(=O)n2C` (single isomer, unassigned) [Compound A116b], for which the figures for the pIC50 against DGKζ and against DGKα were less than 5.00 and 4.68, respectively.

With `CC[C@H]1CN(C(C)c2ccc3ncsc3n2)[C@H](CC)CN1c1nc(=O)n(C)c2cn(CC#N)nc12` (single isomer, unassigned) [Compound A126a], the pIC50 was 5.88 at DGKζ and 5.86 against DGKα.

Turning to `CC[C@H]1CN(C(C)c2ccc3ncsc3n2)[C@H](CC)CN1c1nc(=O)n(C)c2cn(CC#N)nc12` (single isomer, unassigned) [Compound A126b], the pIC50 at DGKζ is 7.29; against DGKα, 7.03.
